Laboratory results: patent publication US12371454B2, “Cyclic peptide compound having Kras inhibitory action” (priority 2019, dated 2025)
Starred links: 1 amine or outer side, 2 acyl side, 3 side chain; linkers in the order of their positions; H or OH if unused. Positions of bridges follow the written chain, without caps; N, C: chain ends. Non-standard residues stand in square brackets, D forms with d. Residues, ends and D or L forms follow the SMILES beside them. *: point of attachment. hPhe(3,5-F2-4-CF3) = N[C@@H](CCc1cc(F)c(C(F)(F)F)c(F)c1)C(=O)O; hPhe(3-Cl-4-CF3) = N[C@@H](CCc1ccc(C(F)(F)F)c(Cl)c1)C(=O)O; hPhe(3,4-Cl2) = N[C@@H](CCc1ccc(Cl)c(Cl)c1)C(=O)O; NEtAsp = CCN([C@@H](CC(=O)[*:3])C(=O)[*:2])[*:1]; Piperazinyl(4-(3-oxetanyl)) = C1OCC1N1CCN(*)CC1; 3Oxa8azabicyclo(3.2.1)octane = C1CC2COCC1N2*; NMeAbu(4,4,4-F3) = CN[C@@H](CC(F)(F)F)C(=O)O; NMePhe(4-Me) = CN[C@@H](Cc1ccc(C)cc1)C(=O)O; NMePhe(2-Cl) = CN[C@@H](Cc1ccccc1Cl)C(=O)O; hPhe(4-Cl) = N[C@@H](CCc1ccc(Cl)cc1)C(=O)O; NMedβ3hAla = C[C@H](CC(=O)[*:2])N(C)[*:1]; NMeAla(cPent) = CN[C@@H](CC1CCCC1)C(=O)O; NMeGly(cPent) = CN[C@H](C(=O)O)C1CCCC1; NMeGly(cBu) = CN[C@H](C(=O)O)C1CCC1; NMeCha = CN[C@@H](CC1CCCCC1)C(=O)O; NMeCba = CN[C@@H](CC1CCC1)C(=O)O; NMeChg = CN[C@H](C(=O)O)C1CCCCC1; NMeI = CC[C@H](C)[C@H](NC)C(=O)O; NMeD = CN[C@@H](CC(=O)O)C(=O)O; NMeL = CN[C@@H](CC(C)C)C(=O)O; NMePra = C#CC[C@H](NC)C(=O)O; NMeNva = CCC[C@H](NC)C(=O)O; NMeV = CN[C@H](C(=O)O)C(C)C; d(β3hA) = C[C@@H](N)CC(=O)O; NMeAbu = CC[C@H](NC)C(=O)O; Morpholide = C1CN(*)CCO1; NMeA = CN[C@@H](C)C(=O)O; Piperidide = C1CCN(*)CC1; Pyrrolidide = C1CCN(*)C1; Ac5c = NC1(C(=O)O)CCCC1; Aze = O=C(O)[C@@H]1CCN1; Ac4c = NC1(C(=O)O)CCC1; Aib = CC(C)(N)C(=O)O; Sar = CNCC(=O)O

What was measured:
[1] = target: T1, Kras and SOS1 (biotin-tagged human Kras loaded with GDP, His-tagged human SOS1) (Homo sapiens, UniProt P01116, G12D); assay: Protein-protein interaction inhibition between Kras and SOS1 (KrasGl2D-SOS PPI) using AlphaScreen; type: binding; conditions: AlphaScreen; biotin-tagged human Kras loaded with GDP, His-tagged human SOS1; read-out: KRAS G12D-SOS PPI IC50
T1 construct: made in house; host or cells: E. coli (stated for Kras only)
How it was run: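 Energy transfer from nickel-chelate donor beads bound to His-SOS1 to streptavidin acceptor beads bound to biotin-Kras, expressed in E. coli and loaded with GDP after purification, was monitored. Donors were excited at 680 nm; singlet oxygen reaching acceptors gave emission read at 520-620 nm.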

[2] = system: Human pancreatic cancer cell line AsPC-1; assay: Measurement of AsPC-1 cell growth inhibition (AsPC-1 CGI); type: cell-based; conditions: 96 h
How it was run: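 AsPC-1 cells in 15% FBS RPMI-1640 were exposed to test compound for 96 hours at 37° C, with CellTiter-Glo as endpoint.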

T1 sequence (P01116 1-188 isoform P01116-2 G12D): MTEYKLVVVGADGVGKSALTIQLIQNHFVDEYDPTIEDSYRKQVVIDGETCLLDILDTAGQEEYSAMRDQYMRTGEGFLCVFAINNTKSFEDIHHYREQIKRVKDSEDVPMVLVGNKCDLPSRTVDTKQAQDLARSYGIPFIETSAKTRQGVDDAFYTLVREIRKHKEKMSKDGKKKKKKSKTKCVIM

SMILES	IC50 [1] [nM]	IC50 [2] [nM]
CC[C@H](C)[C@@H]1NC(=O)[C@H](CC(C)C)N(C)C(=O)C[C@@H](C(=O)N2CCCCC2)N(C)C(=O)[C@H]([C@@H](C)CC)N(C)C(=O)C2(CCCC2)NC(=O)[C@@H]2CCCN2C(=O)[C@H](CCc2ccc(C(F)(F)F)c(Cl)c2)NC(=O)CN(C)C(=O)[C@H](CC2CCCCC2)N(C)C(=O)CN(C)C(=O)CN(C)C1=O [Compound 311] ([NMeL]I[Sar][Sar][NMeCha][Sar][hPhe(3-Cl-4-CF3)]P[Ac5c][NMeI][NMeD]-Piperidide; lactam N-11)	5.9	20 to 50
CC[C@H](C)[C@@H]1NC(=O)[C@H](CC(F)(F)F)N(C)C(=O)C[C@@H](C(=O)N2C3CCC2COC3)N(C)C(=O)[C@H](C2CCCCC2)N(C)C(=O)C2(CCCC2)NC(=O)[C@@H]2CCCN2C(=O)[C@H](CCc2ccc(C(F)(F)F)c(Cl)c2)NC(=O)CN(C)C(=O)[C@H](CC2CCCC2)N(C)C(=O)CN(C)C(=O)CN(C)C1=O [Compound 1057] ([NMeAbu(4,4,4-F3)]I[Sar][Sar][NMeAla(cPent)][Sar][hPhe(3-Cl-4-CF3)]P[Ac5c][NMeChg][NMeD]-{3Oxa8azabicyclo(3.2.1)octane}; lactam N-11)	1.2	100 to 500
CC[C@H](C)[C@@H]1NC(=O)[C@H](C)N(C)C(=O)C[C@@H](C(=O)N2CCCCC2)N(C)C(=O)[C@H](C2CCCCC2)N(C)C(=O)C2(CCCC2)NC(=O)[C@@H]2CCCN2C(=O)[C@H](CCc2ccc(Cl)c(Cl)c2)NC(=O)CN(C)C(=O)[C@H](CC2CCCCC2)N(C)C(=O)CN(C)C(=O)CN(C)C1=O [Compound 825] ([NMeA]I[Sar][Sar][NMeCha][Sar][hPhe(3,4-Cl2)]P[Ac5c][NMeChg][NMeD]-Piperidide; lactam N-11)	0.35	50 to 100
C#CC[C@H]1C(=O)N[C@@H]([C@@H](C)CC)C(=O)N(C)CC(=O)N(C)CC(=O)N(C)[C@@H](CC2CCCCC2)C(=O)N(C)CC(=O)N[C@@H](CCc2ccc(C(F)(F)F)c(Cl)c2)C(=O)N2CCC[C@H]2C(=O)NC2(CCCC2)C(=O)N(C)[C@@H](C2CCCCC2)C(=O)N(C)[C@H](C(=O)N2CCCCC2)CC(=O)N1C [Compound 551] ([NMePra]I[Sar][Sar][NMeCha][Sar][hPhe(3-Cl-4-CF3)]P[Ac5c][NMeChg][NMeD]-Piperidide; lactam N-11)	0.52	50 to 100
CC[C@H](C)[C@@H]1NC(=O)[C@H](CC(C)C)N(C)C(=O)C[C@@H](C(=O)N2CCN(C3COC3)CC2)N(C)C(=O)[C@H](C(C)C)N(C)C(=O)C2(CCCC2)NC(=O)[C@@H]2CCCN2C(=O)[C@H](CCc2ccc(C(F)(F)F)c(Cl)c2)NC(=O)CN(C)C(=O)[C@H](CC2CCCCC2)N(C)C(=O)[C@@H]2CCN2C(=O)[C@H](C)N(C)C1=O [Compound 1181] ([NMeL]I[NMeA][Aze][NMeCha][Sar][hPhe(3-Cl-4-CF3)]P[Ac5c][NMeV][NMeD]-{Piperazinyl(4-(3-oxetanyl))}; lactam N-11)	6	100 to 500
CC[C@H](C)[C@@H]1NC(=O)[C@H](CC(C)C)N(C)C(=O)C[C@@H](C(=O)N2CCCCC2)N(C)C(=O)[C@H](C2CCCCC2)N(C)C(=O)C2(CCCC2)NC(=O)[C@@H]2CCCN2C(=O)[C@H](CCc2ccc(C(F)(F)F)c(Cl)c2)NC(=O)CN(C)C(=O)[C@H](CC2CCC2)N(C)C(=O)CN(C)C(=O)CN(C)C1=O [Compound 1817] ([NMeL]I[Sar][Sar][NMeCba][Sar][hPhe(3-Cl-4-CF3)]P[Ac5c][NMeChg][NMeD]-Piperidide; lactam N-11)	1.4	100 to 500
CC[C@H](C)[C@@H]1NC(=O)[C@H](CC(F)(F)F)N(C)C(=O)C[C@@H](C(=O)N2CCCC2)N(C)C(=O)[C@H](C2CCCCC2)N(C)C(=O)C2(CCCC2)NC(=O)[C@@H]2CCCN2C(=O)[C@H](CCc2cc(F)c(C(F)(F)F)c(F)c2)NC(=O)CN(C)C(=O)[C@H](CC2CCCCC2)N(C)C(=O)CN(C)C(=O)CN(C)C1=O [Compound 1228] ([NMeAbu(4,4,4-F3)]I[Sar][Sar][NMeCha][Sar][hPhe(3,5-F2-4-CF3)]P[Ac5c][NMeChg][NMeD]-Pyrrolidide; lactam N-11)	0.59	20 to 50
CC[C@H](C)[C@@H]1NC(=O)[C@H](CC)N(C)C(=O)C[C@@H](C)NC(=O)[C@H](C(C)C)N(C)C(=O)C2(CCCC2)NC(=O)[C@@H]2CCCN2C(=O)[C@H](CCc2ccc(C(F)(F)F)c(Cl)c2)NC(=O)CN(C)C(=O)[C@H](CC2CCCCC2)N(C)C(=O)[C@@H]2CCN2C(=O)[C@H](C)N(C)C1=O [Compound 1607] (cyclo([Ac5c][NMeV][d(β3hA)][NMeAbu]I[NMeA][Aze][NMeCha][Sar][hPhe(3-Cl-4-CF3)]P))	28	100 to 500
CC[C@H](C)[C@@H]1NC(=O)[C@H](CC(C)C)N(C)C(=O)C[C@@H](C(=O)N2C3CCC2COC3)N(C)C(=O)[C@H](C(C)C)N(C)C(=O)C2(CCCC2)NC(=O)[C@@H]2CCCN2C(=O)[C@H](CCc2ccc(C(F)(F)F)c(Cl)c2)NC(=O)CN(C)C(=O)[C@H](CC2CCCCC2)N(C)C(=O)CN(C)C(=O)CN(C)C1=O [Compound 1954] ([NMeL]I[Sar][Sar][NMeCha][Sar][hPhe(3-Cl-4-CF3)]P[Ac5c][NMeV][NMeD]-{3Oxa8azabicyclo(3.2.1)octane}; lactam N-11)	2.3	100 to 500
CC[C@H](C)[C@@H]1NC(=O)[C@H](CC(C)C)N(C)C(=O)C[C@@H](C(=O)N2CCCCC2)N(C)C(=O)[C@H](C(C)C)N(C)C(=O)C2(CCCC2)NC(=O)[C@@H]2CCCN2C(=O)[C@H](CCc2ccc(Cl)cc2)NC(=O)CN(C)C(=O)[C@H](CC2CCCCC2)N(C)C(=O)CN(C)C(=O)CN(C)C1=O [Compound 893] ([NMeL]I[Sar][Sar][NMeCha][Sar][hPhe(4-Cl)]P[Ac5c][NMeV][NMeD]-Piperidide; lactam N-11)	21	100 to 500
CC[C@H](C)[C@@H]1NC(=O)[C@H](CC(C)C)N(C)C(=O)C[C@@H](C)N(C)C(=O)[C@H](C(C)C)N(C)C(=O)C2(CCCC2)NC(=O)[C@@H]2CCCN2C(=O)[C@H](CCc2ccc(C(F)(F)F)c(Cl)c2)NC(=O)CN(C)C(=O)[C@H](Cc2ccccc2Cl)N(C)C(=O)CN(C)C(=O)CN(C)C1=O [Compound 1615] (cyclo([Ac5c][NMeV][NMedβ3hAla][NMeL]I[Sar][Sar][NMePhe(2-Cl)][Sar][hPhe(3-Cl-4-CF3)]P))	40	100 to 500
CC[C@H](C)[C@@H]1NC(=O)[C@H](C)N(C)C(=O)C[C@@H](C(=O)N2CCCCC2)N(CC)C(=O)[C@H](C2CCCC2)N(C)C(=O)C2(CCCC2)NC(=O)[C@@H]2CCCN2C(=O)[C@H](CCc2ccc(C(F)(F)F)c(Cl)c2)NC(=O)CN(C)C(=O)[C@H](CC2CCCCC2)N(C)C(=O)CN(C)C(=O)CN(C)C1=O [Compound 532] ([NMeA]I[Sar][Sar][NMeCha][Sar][hPhe(3-Cl-4-CF3)]P[Ac5c][NMeGly(cPent)][NEtAsp]-Piperidide; lactam N-11)	0.48	50 to 100
CC[C@H](C)[C@@H]1NC(=O)[C@H](CC(C)C)N(C)C(=O)C[C@@H](C(=O)N2CCCCC2)N(C)C(=O)[C@H](C2CCCCC2)N(C)C(=O)C(C)(C)NC(=O)[C@@H]2CCCN2C(=O)[C@H](CCc2ccc(C(F)(F)F)c(Cl)c2)NC(=O)CN(C)C(=O)[C@H](CC2CCCCC2)N(C)C(=O)CN(C)C(=O)CN(C)C1=O [Compound 1680] ([NMeL]I[Sar][Sar][NMeCha][Sar][hPhe(3-Cl-4-CF3)]P[Aib][NMeChg][NMeD]-Piperidide; lactam N-11)	0.61	50 to 100
CCC[C@H]1C(=O)N[C@@H]([C@@H](C)CC)C(=O)N(C)CC(=O)N(C)CC(=O)N(C)[C@@H](Cc2ccc(C)cc2)C(=O)N(C)CC(=O)N[C@@H](CCc2ccc(C(F)(F)F)c(Cl)c2)C(=O)N2CCC[C@H]2C(=O)NC2(CCCC2)C(=O)N(C)[C@@H](C2CCCCC2)C(=O)N(C)[C@H](C(=O)N2CCOCC2)CC(=O)N1C [Compound 1871] ([NMeNva]I[Sar][Sar][NMePhe(4-Me)][Sar][hPhe(3-Cl-4-CF3)]P[Ac5c][NMeChg][NMeD]-Morpholide; lactam N-11)	0.48	20 to 50
CC[C@H](C)[C@@H]1NC(=O)[C@H](C)N(C)C(=O)C[C@@H](C)NC(=O)[C@H](C2CCCC2)N(C)C(=O)C2(CCC2)NC(=O)[C@@H]2CCCN2C(=O)[C@H](CCc2ccc(C(F)(F)F)c(Cl)c2)NC(=O)CN(C)C(=O)[C@H](Cc2ccc(C)cc2)N(C)C(=O)CN(C)C(=O)CN(C)C1=O [Compound 1466] (cyclo([Ac4c][NMeGly(cPent)][d(β3hA)][NMeA]I[Sar][Sar][NMePhe(4-Me)][Sar][hPhe(3-Cl-4-CF3)]P))	1	100 to 500
CC[C@H](C)[C@@H]1NC(=O)[C@H](CC(C)C)N(C)C(=O)C[C@@H](C(=O)N2C3CCC2COC3)N(C)C(=O)[C@H](C2CCCCC2)N(C)C(=O)C2(CCC2)NC(=O)[C@@H]2CCCN2C(=O)[C@H](CCc2ccc(C(F)(F)F)c(Cl)c2)NC(=O)CN(C)C(=O)[C@H](CC2CCCCC2)N(C)C(=O)CN(C)C(=O)CN(C)C1=O [Compound 1936] ([NMeL]I[Sar][Sar][NMeCha][Sar][hPhe(3-Cl-4-CF3)]P[Ac4c][NMeChg][NMeD]-{3Oxa8azabicyclo(3.2.1)octane}; lactam N-11)	0.68	20 to 50
CC[C@H](C)[C@@H]1NC(=O)[C@H](CC(C)C)N(C)C(=O)C[C@@H](C)N(C)C(=O)[C@H](C2CCC2)N(C)C(=O)C2(CCCC2)NC(=O)[C@@H]2CCCN2C(=O)[C@H](CCc2ccc(C(F)(F)F)c(Cl)c2)NC(=O)CN(C)C(=O)[C@H](CC2CCCCC2)N(C)C(=O)CN(C)C(=O)CN(C)C1=O [Compound 845] (cyclo([Ac5c][NMeGly(cBu)][NMedβ3hAla][NMeL]I[Sar][Sar][NMeCha][Sar][hPhe(3-Cl-4-CF3)]P))	8.2	50 to 100
